pIC50: −log10 of the molar value.
Tested on: washed human platelets, TRAP-induced aggregation
Assay: In vitro test for inhibition of human platelet aggregation induced by TRAP
Assay type: cell-based
Settings: 5 μM TRAP; washed human platelets; mean of n experiments; entries marked b measured with a Chronolog aggregometer, others with micro plate reader; read-out: Inhibition of TRAP (5 μM)-induced human platelet aggregation (IC50), mean
Excerpt: I.b. In vitro Test for Inhibition of Human Platelet Aggregation Induced by TRAP
Introduction: Addition of trombin receptor agonist peptide (TRAP) to washed human platelets (WPL) in vitro induces platelet aggregation. This aggregation can be determined by measuring the optical density of the WPL. The in vitro test described here is used to analyze the activity of a test compound to inhibit TRAP-induced aggregation of human platelets. A micro plate reader is used to measure the activity of several compounds simultaneously.
An alternative vehicle is 0.9% NaCl in MQ H2O. The compound solution (either in MQ H2O or 0.9% NaCl in MQ H2O) is further diluted in 0.9% NaCl in MQ H2O.
Free-flowing blood (at least 100 mL) is taken from a healthy volunteer and collected in 0.1 volume 3.8% sodium citrate. 2H2O in MQ H2O (w/v). The final concentration is 0.38% sodium citrate. The citrated blood is centrifuged at 1,600 N/kg (160 g) in Hettich Rotanta/AP centrifuge (750 rpm) at RT. After 15 min, centrifugation is discontinued with the brake turned off and the supernatant (=PRP) is collected. • 2. Washed platelets (WPL):
After adding freshly made 1 μL PGI2 solution per ml PRP, the suspension is centrifuged at 13,500 N/kg (1,350 g) for 10 min in a Hettich Rotanta/AP centrifuge (i.e., 2,800 rpm) at RT. After gentle resuspension of the pellet in the same volume of fresh Watson buffer containing 5 ng/mL PGI2, the suspension is centrifuged at 1,350 g (2,800 rpm) for 10 min at RT again. The final platelet pellet is resuspended in Watson buffer to give approx. 400,000±50,000 platelets/[…]. • 3. Watson buffer:
134 mM NaCl, 2.9 mM KCl, 12 mM NaHCO3, 0.34 mM Na2HPO4.2H2O, 1 mM MgCl2.6H2O, 5 mM Glucose and 5 mM HEPES in MQ H2O. The pH is adjusted to 7.4 with 1 M NaOH. • 4. Prostaglandin I2 (Sigma, P6188 powder):
The PGI2 stock solution of 1 mg/mL in 1 M KOH is stored in aliquots of 100 μL at −20° C. Immediately before use, a solution of 5 μg/mL in ice-cold 0.9% NaCl in MQ H2O is prepared. • 5. Human Fibrinogen (Kordia/ERL, art nr: FIB 2 powder):
0.5 g fibrinogen powder is dissolved in 50 mL MQ H2O under vacuum. This stock solution is stored in aliquots of 1 mL at −20° C. Before use, a solution of 0.5 mg/mL in saline is prepared.
Before use, a solution of 50 μM TRAP in 0.9% NaCl in MQ H2O is prepared. For each test, a fresh solution is made.
• 1. Sysmex cell counter model KX-21 • 2. Labsystems iEMS reader MF with a 405 nm filter, an orbital shaker set at 1,000 rpm and a constant temperature of 37° C. Absorptions are measured with the Labsystems iEMS program. • 3. Blood collection system 600 mL with needle, art nr P4203 (NPBI) • 4. 96 wells micro plates (Greiner Labortechnik) flat-bottom
Procedure: The WPL concentration is counted in a Sysmex blood cell counter and the suspension is diluted with Watson buffer to obtain a concentration of 400,000±50,000 plt/μL. Before use, WPL is allowed to stabilize at room temperature for at least 20 min but not longer than 3-4 hours.
TRAP-induced aggregation: 150 μL WPL is pipetted into a well of a micro plate. 15 μL test compound or vehicle and 15 μL fibrinogen solution is added and the micro plate is placed in the micro plate reader at 37° C. Then, the optical density (OD) is measured at 405 nm and after shaking for 2 min in the reader, the OD405 is measured again to verify the stability of the platelets (absence of spontaneous platelet aggregation). 20 μL of 50 μM TRAP is added and the OD405 is kinetically measured every min for 14 min at 405 nm. Between two measurements, the plate is shaking for 40 seconds at 1,000 rpm (FIG. 1). For determination of the IC50 of a test compound, each test compound is investigated in at least 2 experiments using WPL from different volunteers.
Evaluation of response: The mean OD of each concentration (including vehicle) is calculated at t=0 min and t=10 min. The percentage inhibition at each concentration is calculated using the formula: […]

**Q.** With “Methyl O-2,3-di-O-methyl-4-O-<<12-N-<N-(3-keto-benzenesulfonyl)-4-O-{4-(4-piperidinyl)-butyl}-L-tyrosine>-12-aza-3,6,9-trioxa-dodecyl>>-6-O-sulfo-alpha-D-glucopyranosyl-(1->4)-O-2,3-di-O-methyl-beta-D-glucopyranuronosyl-(1->4)-O-2,3,6-tri-O-sulfo-alpha-D-glucopyranosyl-(1->4)-O-2,3-di-O-methyl-alpha-L-idopyranuronosyl-(1>4)-3-O-methyl-2,6-di-O-sulfo-alpha-D-glucopyranoside octakis sodium salt [XIV]” as the substance, how does the pIC50 read?
**A.** 7.10

From patent publication US7576071B2, “Antithrombotic compound” (sanofi-aventis, priority 2004, dated 2009)
